The target of one test is Melanocortin receptor 4 (Homo sapiens, UniProt P32245). The experiment in a line: Agonistic activity against human Melanocortin 4 receptor. The class given is functional.
The target in another test is Melanocortin receptor 3 (Homo sapiens, UniProt P41968). The experiment in a line: Agonistic activity against human Melanocortin 3 receptor. The class given is functional.
The target in test [1] is Melanocyte-stimulating hormone receptor (Homo sapiens, UniProt Q01726). Kind of test: Agonistic activity against human Melanocortin 1 receptor. The class given is functional.
In test [2] the target is Melanocortin receptor (M1 and M4) (Homo sapiens) (UniProt P32245+Q01726). The experiment in a line: Ratio of EC50 of Melanocortin 4 receptor to that of Melanocortin 1 receptor. The class given is protein assay.
Test [3] addresses Melanocortin receptor (M3 and M4) (Homo sapiens) (UniProt P32245+P41968). Kind of test: Ratio of EC50 of Melanocortin 4 receptor to that of Melanocortin 3 receptor. The class given is protein assay.

The structures appear in SMILES notation.

Melanocortin receptor 3, sequence (P41968 whole entry): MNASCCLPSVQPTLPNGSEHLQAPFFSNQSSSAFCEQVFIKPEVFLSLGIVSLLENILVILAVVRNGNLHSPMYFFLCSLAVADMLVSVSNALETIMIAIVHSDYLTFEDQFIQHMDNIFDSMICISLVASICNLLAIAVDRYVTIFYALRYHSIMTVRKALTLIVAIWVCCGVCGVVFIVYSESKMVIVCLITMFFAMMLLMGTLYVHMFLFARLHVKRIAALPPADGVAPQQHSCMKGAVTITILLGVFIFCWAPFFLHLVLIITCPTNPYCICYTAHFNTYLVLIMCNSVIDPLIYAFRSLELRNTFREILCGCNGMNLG
Melanocyte-stimulating hormone receptor, sequence (Q01726 whole entry): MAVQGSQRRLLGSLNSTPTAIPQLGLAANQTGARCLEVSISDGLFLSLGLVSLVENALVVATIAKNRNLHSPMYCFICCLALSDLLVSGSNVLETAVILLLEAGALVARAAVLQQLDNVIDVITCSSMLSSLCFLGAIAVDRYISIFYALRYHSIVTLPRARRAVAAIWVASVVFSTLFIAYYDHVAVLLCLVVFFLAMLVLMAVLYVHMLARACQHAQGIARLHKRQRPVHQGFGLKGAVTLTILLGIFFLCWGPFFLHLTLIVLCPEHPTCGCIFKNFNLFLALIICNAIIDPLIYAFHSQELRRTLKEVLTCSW
Melanocortin receptor 4, sequence (P32245 whole entry): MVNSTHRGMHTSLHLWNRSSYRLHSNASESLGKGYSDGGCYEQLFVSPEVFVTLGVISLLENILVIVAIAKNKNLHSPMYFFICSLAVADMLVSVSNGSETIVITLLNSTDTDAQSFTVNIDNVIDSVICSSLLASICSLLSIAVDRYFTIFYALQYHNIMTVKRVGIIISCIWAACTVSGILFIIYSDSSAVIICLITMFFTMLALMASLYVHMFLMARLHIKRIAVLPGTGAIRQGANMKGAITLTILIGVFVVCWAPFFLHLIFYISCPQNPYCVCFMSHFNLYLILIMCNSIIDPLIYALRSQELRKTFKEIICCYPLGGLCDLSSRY

Regarding `CCC(=O)N[C@@H](Cc1ccc(Cl)cc1)C(=O)NC(Cc1ccccc1)C(=O)N[C@@H](CCCN=C(N)N)C(=O)N[C@@H](Cc1c[nH]c2ccccc12)C(N)=O` (stereo in doubt), the EC50 on Melanocortin receptor 4 was 159 nM; at Melanocortin receptor 3, 2360 nM; in test [1] it was 1980 nM. The Ratio in test [2] stood at 12; in test [3], 15.
The corresponding values for `COP(=S)(N[C@@H](Cc1ccc(Cl)cc1)C(=O)NC(Cc1ccccc1)C(=O)N[C@@H](CCCN=C(N)N)C(=O)N[C@@H](Cc1c[nH]c2ccccc12)C(N)=O)OC` (stereo in doubt) are 446 nM, 1600 nM, 1890 nM, 4 and 4.
The corresponding values for `CS(=O)(=O)N[C@@H](Cc1ccc(Cl)cc1)C(=O)NC(Cc1ccccc1)C(=O)N[C@@H](CCCN=C(N)N)C(=O)N[C@@H](Cc1c[nH]c2ccccc12)C(N)=O` (stereo in doubt) are 419 nM, 6700 nM, 534 nM, 1 and 16.
The corresponding values for `C=CCC(=O)N[C@@H](Cc1ccc(Cl)cc1)C(=O)NC(Cc1ccccc1)C(=O)N[C@@H](CCCNC(=N)N)C(=O)N[C@@H](Cc1c[nH]c2ccccc12)C(N)=O` (stereo in doubt) are 13.7 nM, 863 nM, 856 nM, 62 and 63.
As for `CC(C)C(=O)N[C@@H](Cc1ccc(Cl)cc1)C(=O)NC(Cc1ccccc1)C(=O)N[C@@H](CCCN=C(N)N)C(=O)N[C@@H](Cc1c[nH]c2ccccc12)C(N)=O` (stereo in doubt), the EC50 turned out to be 123 nM at Melanocortin receptor 4, 497 nM on Melanocortin receptor 3 and 565 nM in test [1]. Further, the Ratio in test [2] is 5; in test [3], 4.
For `N=C(N)NCCC[C@H](NC(=O)C(Cc1ccccc1)NC(=O)[C@H](Cc1ccc(Cl)cc1)NC(=O)C1CC1)C(=O)N[C@@H](Cc1c[nH]c2ccccc12)C(N)=O` (stereo in doubt) the same measures were 38.5 nM, 473 nM, 536 nM, 14 and 12.
The corresponding values for `N=C(N)NCCC[C@H](NC(=O)C(Cc1ccccc1)NC(=O)[C@H](Cc1ccc(Cl)cc1)NC(=O)Nc1ccccc1)C(=O)N[C@@H](Cc1c[nH]c2ccccc12)C(N)=O` (stereo in doubt) are 146 nM, 92.5 nM, 985 nM, 7 and 0.6.
The corresponding values for `CC(C)(C)C(=O)N[C@@H](Cc1ccc(Cl)cc1)C(=O)NC(Cc1ccccc1)C(=O)N[C@@H](CCCN=C(N)N)C(=O)N[C@@H](Cc1c[nH]c2ccccc12)C(N)=O` (stereo in doubt) are 23.7 nM, 145 nM, 381 nM, 16 and 6.
On to `CSCC(=O)N[C@@H](Cc1ccc(Cl)cc1)C(=O)NC(Cc1ccccc1)C(=O)N[C@@H](CCCN=C(N)N)C(=O)N[C@@H](Cc1c[nH]c2ccccc12)C(N)=O` (stereo in doubt), for which the concentration for a half-maximal effect (EC50) at Melanocortin receptor 4 is 39.3 nM; at Melanocortin receptor 3 it was 1020 nM; in test [1], 378 nM. Besides, the Ratio in test [2] came out at 10; in test [3], 26.
Regarding `N=C(N)NCCC[C@H](NC(=O)C(Cc1ccccc1)NC(=O)[C@H](Cc1ccc(Cl)cc1)NC(=O)CCC(=O)c1ccc(F)cc1)C(=O)N[C@@H](Cc1c[nH]c2ccccc12)C(N)=O` (stereo in doubt), the 50% effective concentration (EC50) was 50 nM on Melanocortin receptor 4, 203 nM on Melanocortin receptor 3 and 114 nM in test [1]. Besides, the Ratio came out at 2 in test [2] and 4 in test [3].
Take `N=C(N)NCCC[C@H](NC(=O)C(Cc1ccccc1)NC(=O)[C@H](Cc1ccc(Cl)cc1)NC(=O)CCC(=O)c1cc(F)cc(F)c1)C(=O)N[C@@H](Cc1c[nH]c2ccccc12)C(N)=O` (stereo in doubt): the values for the EC50 (at Melanocortin receptor 4; on Melanocortin receptor 3; in test [1]) were 96 nM, 140 nM and 41 nM, respectively. Moreover, the values for the Ratio in test [2] and in test [3] were 0.4 and 1.5, respectively.
In the case of `CCCC(=O)N[C@@H](Cc1ccc(Cl)cc1)C(=O)NC(Cc1ccccc1)C(=O)N[C@@H](CCCN=C(N)N)C(=O)N[C@@H](Cc1c[nH]c2ccccc12)C(N)=O` (stereo in doubt), the concentration giving a half-maximal response (EC50) worked out at 106 nM on Melanocortin receptor 4, 827 nM at Melanocortin receptor 3 and 803 nM in test [1]. The Ratio in test [2] and in test [3] was 8 throughout.
As to `N=C(N)NCCC[C@H](NC(=O)C(Cc1ccccc1)NC(=O)[C@H](Cc1ccc(Cl)cc1)NS(=O)(=O)C(F)(F)F)C(=O)N[C@@H](Cc1c[nH]c2ccccc12)C(N)=O` (stereo in doubt), the figures for the EC50 (at Melanocortin receptor 4; on Melanocortin receptor 3; in test [1]) were 4530 nM, 1670 nM and 2160 nM, respectively. The Ratio in test [2] came to 0.5; in test [3], 0.4.
For `COCC(=O)N[C@@H](Cc1ccc(Cl)cc1)C(=O)NC(Cc1ccccc1)C(=O)N[C@@H](CCCN=C(N)N)C(=O)N[C@@H](Cc1c[nH]c2ccccc12)C(N)=O` (stereo in doubt) the same measures were 68.7 nM, 961 nM, 502 nM, 7 and 14.
Turning to `N=C(N)NCCC[C@H](NC(=O)C(Cc1ccccc1)NC(=O)[C@H](Cc1ccc(Cl)cc1)NC(=O)COc1ccccc1)C(=O)N[C@@H](Cc1c[nH]c2ccccc12)C(N)=O` (stereo in doubt), the EC50 at Melanocortin receptor 4 stood at 185 nM; on Melanocortin receptor 3 it was 859 nM; in test [1] it was 841 nM. In addition, the Ratio amounted to 4 in test [2] and 5 in test [3].
The corresponding values for `COP(=O)(N[C@@H](Cc1ccc(Cl)cc1)C(=O)NC(Cc1ccccc1)C(=O)N[C@@H](CCCN=C(N)N)C(=O)N[C@@H](Cc1c[nH]c2ccccc12)C(N)=O)OC` (stereo in doubt) are 137 nM, 2640 nM, 785 nM, 6 and 19.
The corresponding values for `CCCCC(=O)N[C@@H](Cc1ccc(Cl)cc1)C(=O)NC(Cc1ccccc1)C(=O)N[C@@H](CCCN=C(N)N)C(=O)N[C@@H](Cc1c[nH]c2ccccc12)C(N)=O` (stereo in doubt) are 155 nM, 460 nM, 441 nM, 3 and 3.

For the origin of these results see ChEMBL document CHEMBL1137864, “End-capping of the modified melanocortin tetrapeptide (p-Cl)Phe-D-Phe-Arg-Trp-NH2 as a route to hMC4R agonists” (Bioorg Med Chem Lett, 2004).
